Source: PubChem BioAssay (NCI)
Where “and” joins values, the source holds several entries; their conditions need not be identical. Equal values may be shown once.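 Cultured in 96-well plates, cells were exposed to test compound for 48 hours across five concentrations. The concentration for 50% growth inhibition is given as GI50. TGI denotes the concentration required for complete inhibition of growth.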

Columns and labels:
Experiment in all cases: inhibition of tumour cell growth, NCI panel, 48 h
786-0 renal = test system: 786-0 renal
CCRF-CEM leukemia = test system: CCRF-CEM leukemia
COLO 205 colon = test system: COLO 205 colon
EKVX NSCLC = test system: EKVX NSCLC
HOP-92 NSCLC = test system: HOP-92 NSCLC
K-562 leukemia = test system: K-562 leukemia
M14 melanoma = test system: M14 melanoma
MOLT-4 leukemia = test system: MOLT-4 leukemia
SN12C renal = test system: SN12C renal
UACC-62 melanoma = test system: UACC-62 melanoma

| SMILES | TGI (786-0 renal) [µM] | TGI (CCRF-CEM leukemia) [µM] | TGI (COLO 205 colon) [µM] | TGI (EKVX NSCLC) [µM] | TGI (HOP-92 NSCLC) [µM] | TGI (K-562 leukemia) [µM] | TGI (M14 melanoma) [µM] | TGI (MOLT-4 leukemia) [µM] | TGI (SN12C renal) [µM] | TGI (UACC-62 melanoma) [µM] | GI50 (786-0 renal) [µM] | GI50 (CCRF-CEM leukemia) [µM] | GI50 (COLO 205 colon) [µM] | GI50 (EKVX NSCLC) [µM] | GI50 (HOP-92 NSCLC) [µM] | GI50 (K-562 leukemia) [µM] | GI50 (M14 melanoma) [µM] | GI50 (MOLT-4 leukemia) | GI50 (SN12C renal) [µM] | GI50 (UACC-62 melanoma) [µM] |
| --- | --- | --- | --- | --- | --- | --- | --- | --- | --- | --- | --- | --- | --- | --- | --- | --- | --- | --- | --- | --- |
| Cc1cc2nc3c(=O)n(C)c(=O)nc-3n(-c3ccc(Cl)cc3)c2cc1C | 43.3 | 45.4 | 9.76 | 43.9 | 34 | 34.7 | 13.9 | 32.8 | 18.6 | 10.6 | – | – | – | – | – | – | – | – | – | – |
| CN1CCN(Cc2ccc(NC(=O)c3cncc(C#Cc4cnc(N)c5ccc(F)cc45)c3)cc2C(F)(F)F)CC1 | 9.99 | 16.4 | 4.77 | 7.89 | 5.58 | 0.683 | 4.4 | 6.19 | 4.89 | 8.48 | 3.95 | 0.865 | 1.23 | 3.84 | 0.989 | 0.0128 | 0.974 | 0.974 µM | 1.2 | 4 |
| O=[N+]([O-])c1ccc2[nH]cc(-c3c4ccsc4cc4[nH]c5ccc([N+](=O)[O-])cc5c34)c2c1 | 3.52 | 23.3 | 2.42 | 11.4 | 6.94 | 12.3 | 1.39 | 5.5 | 11.4 | 8.01 | 0.877 | 1.05 | 0.796 | 1.56 | 0.882 | 0.664 | 0.527 | 1.27 µM | 1.43 | 0.641 |
| O=C1C=C(c2c(O)ccc3ccccc23)c2ccccc2C1=O | 4.89 | 7.55 | 21.7 | 11.9 | 5.09 | 23.4 | 16.8 | 4.41 | 12.2 | 5.48 | – | – | – | – | – | – | – | – | – | – |
| CC(C)=CC(C(O)c1ccccc1)S(=O)(=O)c1nccn1C (configuration not stated) | > 100 | > 100 | > 100 | > 100 | > 100 | > 100 | > 100 | > 100 | > 100 | > 100 | – | – | – | – | – | – | – | – | – | – |
| O=c1ccn(C2OC(CO)C(O)C2O)c(=O)[nH]1 (configuration not stated) | > 1000 | > 1000 | > 1000 | > 1000 | > 1000 | > 1000 | > 1000 | > 1000 | > 1000 | > 1000 | > 1000 | > 1000 | > 1000 | > 1000 | > 1000 | > 1000 | – | 832 µM and > 10 µM | > 1000 | > 1000 |
| COc1ccc2c(c1)C(=O)CC(N)C2 (configuration not stated) | > 100 | > 100 | > 100 | > 100 | > 100 | > 100 | > 100 | > 100 | > 100 | > 100 | – | – | – | – | – | – | – | – | – | – |
| CCCCNc1nc(NC(C)(C)C)nc(NC(C)(C)C)n1 | > 100 | > 100 | > 100 | > 100 | 24.2 | > 100 | > 100 | > 100 | > 100 | > 100 | 30.7 | 3.18 | 4.44 | 3.12 | 1.38 | 6.46 | 15.7 | 5.69 µM | 3.1 | 3.25 |
| CC(=O)O/N=C/c1ncccc1CO | > 100 | > 100 | > 100 | > 100 | > 100 | > 100 | > 100 | > 100 | > 100 | > 100 | – | – | – | – | – | – | – | – | – | – |
| CC(=O)O[C@H]1C(N(C)C(=O)c2ccccc2)CC[C@]2(C)C3CC[C@@]4(C)C(CC(O)[C@@H]4C(C)N(C)C)[C@@H]3CCC12 (some centres not stated) | > 100 | > 100 | > 100 | > 100 | > 100 | > 100 | > 100 | > 100 | > 100 | > 100 | – | – | – | – | – | – | – | – | – | – |
| CCN(CC)c1ccc(N=Nc2ccc(-c3nc4cccnc4o3)cc2)cc1 | > 100 | > 100 | > 100 | > 100 | > 100 | > 100 | > 100 | > 100 | > 100 | > 100 | – | – | – | – | – | – | – | – | – | – |
| COc1cc2nc(-c3ccc(C(F)(F)F)cc3)cc(OCCCN3CCOCC3)c2cc1OC | 4.47 | 19.3 | 10.3 | 19.6 | 4.66 | 15.9 | 1.55 | 14.9 | 19.7 | 3.9 | 1.76 | 2.79 | 0.528 | 1.61 | 1 | 1.18 | 0.355 | 2.51 µM | 0.675 | 0.628 |
| COc1ccc(/C=C/c2cc(OC)c(OC)c(OC)c2)cc1NC(=O)/C=C/c1ccc(F)cc1 | > 100 | > 31.1 | 6.71 | > 100 | > 100 | > 100 | > 100 | > 100 | > 100 | > 100 | 4.29 | 2.99 | 2.43 | 7.4 | 4.36 | 1.44 | 2.81 | 4.48 µM | 5.56 | 3.32 |
| Nc1nc(-c2cccc([N+](=O)[O-])c2)c(Br)c(=O)[nH]1 | > 100 | > 100 | > 100 | > 100 | > 100 | > 100 | > 64.2 | > 100 | > 100 | > 69.7 | – | – | – | – | – | – | – | – | – | – |
| Cc1c(CCCl)c(=O)n2c([nH]c3ccccc32)c1C#N | 2.84 | 2.5 | 0.28 | 3.65 | 2.82 | > 10 | 2.99 | 1.44 | 2.66 | 2.75 | – | – | – | – | – | – | – | – | – | – |
| S=C(Nc1ccc(-c2nc3ccccc3[nH]2)cc1)NC1CCCCC1 | – | – | > 100 | – | – | – | 53.3 | > 100 | 55 | – | 33.2 | 36.8 | – | 28.5 | 35.3 | 31.5 | 22.6 | 28.3 µM | 25 | 15.3 |
